# Like-named read-outs stand apart in the source and are kept apart here.
# Key:
# RBL-2H3 cells = assay: Fluorescence-based assay of store-operated calcium entry in RBL-2H3 cells (FLIPR, thapsigargin); type: cell-based, rat; settings: Fluo-4, Upslope 0-7 sec, read-out: FLIPR_CRAC: 9 pt CRC - Fluo4_TG-D: RBL-2H3: IC50: Upslope 0-7 sec
# Description: B. Fluorescence-Based Assay of Store-Operated Calcium Entry in RBL-2H3 Cells.
# RBL-2H3 cells are obtained from ATCC and maintained in complete medium with 10% FBS at 37° C./6% CO2.
# The day prior to performing the assay, RBL-2H3 cells are plated in 50 μl of complete medium in a 384 well plate. Cells are grown at 37° C./6% CO2 overnight and grow to 50-60% confluence by the next day. On the assay day, 1.5 μM Fluo-4-AM dye (Invitrogen) in complete medium is added and incubated for 1 hour at RT. Cells are washed twice in Ca^2+-free HBSS buffer and 35 μl Ca^2+-free HBSS buffer is added to each well. 10 μl of a test compound prepared in a Ca^2+-free HBSS solution at 4.5× of the desired concentration is added to a well and incubated for 5 minutes at RT. 10 μl of thapsigargin prepared in a Ca^2+-free HBSS solution at 5.5× of the desired concentration (5.5 uM) is added to each well and incubated for an additional 25 minutes. The initial baseline fluorescence signal is measured with a FLIPR^384 (Molecular Devices) plate reader. 5 μl of 12× calcium in HBSS (12 mM) is added and changes in cellular fluorescence are measured with the FLIPR^384 plate reader. In each well, the change in the fluorescent signal as a function of time due to calcium entry into the cell is determined by calculating the difference between the fluorescent signal measured 7 seconds after calcium addition and the initial baseline fluorescence signal at time zero (t=0). This parameter is designated Upslope. The IC50 value is calculated as the concentration at which 50% of the Upslope is inhibited.
# [1] = molecular target: T1, recombinant human STIM1 and Orai1 (Homo sapiens, UniProt Q96D31); assay: Fluorescence-based assay of store-operated calcium entry in Orai1/STIM1 stable cells (FLIPR); type: cell-based; settings: HEK-293 cells stably expressing human Orai1/STIM1; Fluo-4; Peak-Basal signal; read-out: FLIPR_CRAC: 9 point CRC: O1S1_JR251: IC50: Peak_over_Basal
# T1 construct: c-myc (C); expressed in transfected cells; host or cells: HEK-293 cells stably expressing human STIM1 and human Orai1
# T1 sequence (Q96D31 whole entry): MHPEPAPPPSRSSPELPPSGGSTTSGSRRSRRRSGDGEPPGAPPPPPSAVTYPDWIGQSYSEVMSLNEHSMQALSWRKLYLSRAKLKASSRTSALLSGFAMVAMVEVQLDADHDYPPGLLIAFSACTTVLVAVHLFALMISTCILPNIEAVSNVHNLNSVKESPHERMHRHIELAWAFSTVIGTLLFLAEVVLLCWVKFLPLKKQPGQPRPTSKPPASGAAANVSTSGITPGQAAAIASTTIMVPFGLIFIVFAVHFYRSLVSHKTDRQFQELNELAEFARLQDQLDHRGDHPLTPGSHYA
# Description: A. Fluorescence-Based Assay of Store-Operated Calcium Entry in Orai1/Stim1 Stable Cells.
# Cells stably expressing recombinant human STIM1 and Orai1 are generated by transfecting a human Orai1 expression plasmid (pcDNA3.1-Orai1-cmyc) into HEK-293 cells stably overexpressing human STIM1 (Roos et al. 2005 JCB 169(3): 435-445). Colonies of cells stably expressing both STIM1 and Orai1 proteins are selected and then subcloned by limiting dilution. Cells were cultured at 37° C./6% CO2 in complete medium with 10% FBS and appropriate selection markers.
# The day prior to performing the assay Orai1/STIM1 stable cells are plated in 50 μL of complete medium at 90-95% confluence in a 384 well plate. Cells are grown at 37° C./6% CO2 overnight. On the day of the assay, 1.5 μM fluo-4-AM (Invitrogen) in complete medium is added to the cells, which are then incubated for 1 hour at RT. Cells are washed once in Ca^2+-free HBSS (Hank's buffered saline solution) and 35 μl of Ca^2+-free HBSS is added to each well. Test compounds are added to wells in a 10 μL Ca^2+-free HBSS solution, prepared at 4.5× the desired final concentration, and incubated for 30 minutes at RT. The initial baseline fluorescence signal is then measured with a FLIPR^384 (Molecular Devices) plate reader. Calcium entry is initiated by adding 5 μl of 10×CaCl2 (10 mM) in HBSS, and changes in cellular fluorescence are measured with the FLIPR^384 plate reader. In each well, the magnitude of the fluorescence signal as a result of calcium entry into the cell is determined by calculating the difference between the peak fluorescence signal measured after calcium addition and the initial baseline fluorescence signal (designated Peak-Basal). IC50 values are typically calculated as the concentration that inhibited 50% of the Peak-Basal signal.
# [2] = test system: secreted IL-2 in Jurkat T cells; assay: In vitro assay of cytokine (IL-2) release from T cells; type: cell-based; settings: Jurkat E6-1 cells, PHA/TPA stimulation 20 hours, IL-2 ELISA
# Description: In Vitro Assay of Cytokine Release from T Cells
# Jurkat E6-1 cells are obtained from ATCC and maintained in complete medium with 10% FBS at 37° C./6% CO2.
# The day prior to performing the assay, Jurkat T cells are plated in 90 μL of HBSS Buffer with 1.8 mM CaCl2 and 1.75% fetal bovine serum (FBS) in a 96 well plate at a density of 1.5×10^5 cells/well for 3 hours. 10 μl of 10× test compound prepared in HBSS is added and incubated for 10 minutes at 37° C./6% CO2. Cells are stimulated by the addition of 10 μl of 11×PHA/TPA (27.5 μg/mL PHA/880 nM TPA) and incubated at 37° C./6% CO2 for 20 hours. On the following day, the supernatants are collected and assayed for IL-2 levels by ELISA according to the manufacturer's protocols. The IC50 value is calculated as the concentration at which 50% of secreted IL-2 in vehicle treated cells is inhibited.
SMILES,IC50 (RBL-2H3 cells; Rattus norvegicus) [nM],IC50 [1] [nM],IC50 ([2]; Homo sapiens) [nM],IC50 (RBL-2H3 cells) [nM],IC50 [2] [nM]
"Cn1nc(C(F)(F)F)cc1-c1cnc(NC(=O)c2c(F)cccc2F)s1 [Example 28, (2,6-difluorophenyl)-N-{5-[1-methyl-3-(trifluoromethyl)pyrazol-5-yl](1,3-thiazol-2-yl)}carboxamide]",< 600,< 600,< 50,–,–
"Cn1nc(-c2ccccc2F)cc1-c1ccc(C(=O)Nc2c(F)cccc2F)s1 [Example 35, N-(2,6-difluorophenyl){5-[3-(2-fluorophenyl)-1-methylpyrazol-5-yl](2-thienyl)}carboxamide]",< 600,< 600,< 50,–,–
Cn1nc(-c2ccccc2F)cc1-c1ccc(C(=O)Nc2ccccc2Cl)s1 [Example 41],< 600,< 600,> 100,–,–
"Cn1nc(-c2ccccc2)cc1-c1ccc(C(=O)Nc2c(F)cccc2F)s1 [Example 42, N-(2,6-difluorophenyl)[5-(1-methyl-3-phenylpyrazol-5-yl](2-thienyl)}carboxamide]",< 600,< 600,< 50,–,–
Cn1nc(-c2ccccc2)cc1-c1ccc(C(=O)Nc2ncc(Cl)cc2F)s1 [Example 46],< 600,< 600,< 50,–,–
Cc1nc(-c2cc(-c3cnc(NC(=O)c4ccccc4Cl)s3)n(C)n2)no1 [Example 48],–,< 600,–,600 to 1200,> 100
Cn1nc(-c2nccs2)cc1-c1ccc(C(=O)Nc2ccccc2Cl)s1 [Example 55],< 600,< 600,< 50,–,–
"Cn1nc(-c2ccco2)cc1-c1ccc(C(=O)Nc2c(F)cccc2F)s1 [Example 56, N-(2,6-difluorophenyl)[5-(3-(2-furyl)-1-methylpyrazol-5-yl](2-thienyl)]carboxamide]",< 600,< 600,< 50,–,–
Cn1nc(-c2ccco2)cc1-c1ccc(C(=O)Nc2ccccc2F)s1 [Example 61],< 600,< 600,< 50,–,–
"Cn1nc(C(F)(F)F)cc1-c1ccc(NC(=O)c2c(F)cccc2F)s1 [Example 74, (2,6-difluorophenyl)-N-{5-[1-methyl-3-(trifluoromethyl)pyrazol-5-yl](2-thienyl)}carboxamide]",< 600,< 600,< 50,–,–
Cc1cc2c(cc1-c1cnc(NC(=O)c3ccncc3F)s1)OC(F)(F)O2 [Example 82],< 600,< 600,< 50,–,–
"Cc1cc2c(cc1-c1cnc(NC(=O)c3c(F)cccc3F)s1)OC(F)(F)O2 [Example 83, (2,6-difluorophenyl)-N-[5-(2,2-difluoro-6-methylbenzo[d]1,3-dioxolen-5-yl)(1,3-thiazol-2-yl)]carboxamide]",< 600,> 1200,< 50,–,–
Cc1cc2c(cc1-c1cnc(NC(=O)c3ccccc3F)s1)OC(F)(F)O2 [Example 84],< 600,< 600,< 50,–,–
